For orientation: IC50 means the midpoint of a concentration-inhibition curve. Read a high IC50 as lower potency.

Structures are written as SMILES.

One experiment has as its target T1, Ephrin type-B receptor 4 (Homo sapiens, UniProt P54760).
T1 sequence (P54760 whole entry): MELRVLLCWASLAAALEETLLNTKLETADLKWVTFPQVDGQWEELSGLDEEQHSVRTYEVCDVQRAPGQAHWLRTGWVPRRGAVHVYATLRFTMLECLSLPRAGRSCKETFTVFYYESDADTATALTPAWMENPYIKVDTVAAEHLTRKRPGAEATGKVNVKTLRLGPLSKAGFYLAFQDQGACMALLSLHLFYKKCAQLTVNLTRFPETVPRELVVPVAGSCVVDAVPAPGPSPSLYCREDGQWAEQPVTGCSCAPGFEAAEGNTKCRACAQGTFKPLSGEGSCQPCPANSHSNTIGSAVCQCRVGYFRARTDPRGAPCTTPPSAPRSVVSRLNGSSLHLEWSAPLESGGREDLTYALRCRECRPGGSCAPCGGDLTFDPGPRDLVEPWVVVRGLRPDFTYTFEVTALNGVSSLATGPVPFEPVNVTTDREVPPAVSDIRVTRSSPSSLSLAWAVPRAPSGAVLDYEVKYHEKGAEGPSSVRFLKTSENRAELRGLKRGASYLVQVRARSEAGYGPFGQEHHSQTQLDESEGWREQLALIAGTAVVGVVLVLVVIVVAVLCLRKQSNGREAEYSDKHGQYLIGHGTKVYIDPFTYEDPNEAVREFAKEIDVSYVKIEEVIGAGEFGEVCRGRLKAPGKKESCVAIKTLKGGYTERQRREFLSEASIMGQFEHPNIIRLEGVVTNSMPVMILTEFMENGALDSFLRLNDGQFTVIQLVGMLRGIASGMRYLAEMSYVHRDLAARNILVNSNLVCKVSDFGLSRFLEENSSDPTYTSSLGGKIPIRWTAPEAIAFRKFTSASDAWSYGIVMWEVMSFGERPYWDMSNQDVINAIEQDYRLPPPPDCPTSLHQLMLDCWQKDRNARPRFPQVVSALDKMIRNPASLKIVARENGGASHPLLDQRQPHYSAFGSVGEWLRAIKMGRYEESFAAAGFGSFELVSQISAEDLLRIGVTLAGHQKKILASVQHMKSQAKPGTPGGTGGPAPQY
The experiment can be described thus: blockers of EphB4 ligand binding – biochemical, TNYL-RAW peptide displacement, dose response (AID 835).
Conditions: not given
Regarding `CCCc1[nH]nc2c1C(c1ccc(OC)c(Cn3nnc4ccccc43)c1)C(C#N)C(=N)O2` (stereo not drawn), the IC50 was over 79.4 µM.
Same read-out and setting: with `O=C1CCCc2c1[nH]c1ccccc21` the figure was over 79.4 µM; with `CC(C)CCn1c(SCCN2CCOCC2)nc2c1c(=O)[nH]c(=O)n2C`, over 79.4 µM; with `CCOc1cccc(-n2c(O)cc(=O)[nH]c2=O)c1`, over 79.4 µM.
Same read-out and setting: with `CC(C)(C)C1CCC2(CC1)SCC(=O)N2c1ccccc1` (stereo not drawn) the figure was over 79.4 µM.
In turn, `CCN1C(=O)C(=CNc2ccc(N3CCOCC3)cc2)C(=O)N(CC)C1=S` displayed an IC50 of over 79.4 µM.
On the same count and under the same terms, under `Cc1ccc(Cn2c(SCCN3CCCCC3)nc3c2c(=O)n(C)c(=O)n3C)cc1` [1,3-Dimethyl-7-(4-methyl-benzyl)-8-(2-piperidin-1-yl-ethylsulfanyl)-3,7-dihydro-purine-2,6-dione] stands over 79.4 µM; under `Cn1cc(S(=O)(=O)N2CCN(c3ccccc3)CC2)c(=O)n(C)c1=O` [1,3-dimethyl-5-(4-phenylpiperazin-1-yl)sulfonyl-pyrimidine-2,4-dione], over 79.4 µM.
The compound `C=CCn1c(NCCc2ccccc2)nc2c1c(=O)n(C)c(=O)n2C` [1,3-dimethyl-8-(2-phenylethylamino)-7-prop-2-enyl-purine-2,6-dione] gave a half-inhibitory concentration (IC50) of over 79.4 µM.
For `O=C(c1ccc(COc2ccccc2Cl)o1)N1CCN(Cc2ccc3c(c2)OCO3)CC1` [1-(1,3-benzodioxol-5-ylmethyl)-4-{5-[(2-chlorophenoxy)methyl]-2-furoyl}piperazine], the IC50 was over 79.4 µM.
For `Cn1c(=O)c(NCCO)c2c3c(cccc31)C(=O)c1ccccc1-2` [1-(2-Hydroxy-ethylamino)-3-methyl-3H-naphtho[1,2,3-de]quinoline-2,7-dione], the IC50 was found to be 8.4 µM.
Consider `CC(=O)c1ccc(-n2nnnc2SCC(=O)N2CCc3ccccc3C2)cc1` [1-(3,4-dihydro-1H-isoquinolin-2-yl)-2-[[1-(4-ethanoylphenyl)-1,2,3,4-tetrazol-5-yl]sulfanyl]ethanone], for which the IC50 was over 79.4 µM.
Regarding `Cc1ccc(N2C(=O)C(O)(C(F)(F)F)C3=C2CC(C)(C)CC3=O)cc1C` (stereo not drawn) [1-(3,4-dimethylphenyl)-3-hydroxy-6,6-dimethyl-3-(trifluoromethyl)-3,5,6,7-tetrahydro-1H-indole-2,4-dione], the IC50 was over 79.4 µM.
The same measure, in the same setting: under `CCOC(=O)c1sc2nc(C)c3c(c2c1N)CC(C)(C)OC3` [1-Amino-5,8,8-trimethyl-8,9-dihydro-6H-7-oxa-3-thia-4-aza-cyclopenta[a]naphthalene-2-carboxylic acid ethyl ester] stands over 79.4 µM; under `COCCn1c(C)cc(C(=O)COc2nc3ccccc3nc2C)c1C` [1-[1-(2-methoxyethyl)-2,5-dimethyl-3-pyrrolyl]-2-[(3-methyl-2-quinoxalinyl)oxy]ethanone], over 79.4 µM; under `Cc1cc(C(=O)CSc2nnc(Nc3ccccc3F)s2)c(C)n1CC1CCCO1` (stereo not drawn) [1-[2,5-dimethyl-1-(2-oxolanylmethyl)-3-pyrrolyl]-2-[[5-(2-fluoroanilino)-1,3,4-thiadiazol-2-yl]thio]ethanone], over 79.4 µM.
Same read-out and setting: under `CC(=O)c1ccc(N2CCN(C(=O)c3ccc(Br)cc3)CC2)c(F)c1` [1-[4-[4-(4-bromobenzoyl)piperazin-1-yl]-3-fluorophenyl]ethanone] stands over 79.4 µM; under `CCOC(=O)C1CCN(S(=O)(=O)Cc2ccccc2)C1=O` (stereo not drawn) [1-benzylsulfonyl-2-keto-pyrrolidine-3-carboxylic acid ethyl ester], over 79.4 µM.
Still for that read-out and setting: under `CC(c1ccccc1)C1CC(=O)N(C2CCCCC2)C1=O` (stereo not drawn) [1-cyclohexyl-3-(1-phenylethyl)-2,5-pyrrolidinedione] stands over 79.4 µM; under `c1coc(-c2nc(-c3ccco3)c(-c3ccco3)nc2-c2ccco2)c1` [2,3,5,6-tetrakis(2-furanyl)pyrazine], over 79.4 µM; under `O=C(Nc1cccnc1)C1COc2ccccc2O1` (stereo not drawn) [2,3-Dihydro-benzo[1,4]dioxine-2-carboxylic acid pyridin-3-ylamide], over 79.4 µM.
With `Cc1cc(C)c(S(=O)(=O)NCc2cn3c(C)csc3n2)cc1C` [2,4,5-trimethyl-N-[(3-methyl-6-imidazo[2,1-b]thiazolyl)methyl]benzenesulfonamide], the IC50 was over 79.4 µM.
On the same count and under the same terms, under `Cc1cc(=O)oc(C)c1C(=O)OCC(=O)c1ccc(Cl)cc1` [2,4-Dimethyl-6-oxo-6H-pyran-3-carboxylic acid 2-(4-chloro-phenyl)-2-oxo-ethyl ester] stands over 79.4 µM.
Take `CSc1cccc(-n2c(C)cc(C(N)=O)c2C)c1` [2,5-dimethyl-1-(3-methylsulfanylphenyl)pyrrole-3-carboxamide]: the IC50 was over 79.4 µM.
In turn, `Cc1c2cc(O)c(=O)cc-2oc2cc(O)c(O)cc12` [2,6,7-Trihydroxy-9-methyl-xanthen-3-one] had an IC50 of 3.6 µM.
Compound `CCCc1nnc(NC(=O)CN2C(=O)c3ccccc3S2(=O)=O)s1` [2-(1,1-dioxido-3-oxo-1,2-benzisothiazol-2(3H)-yl)-N-(5-propyl-1,3,4-thiadiazol-2-yl)acetamide] came in with an IC50 of over 79.4 µM.
Still for that read-out and setting: under `CCOC(=O)c1cnc(Nc2nc3ccccc3o2)nc1CN1CCN(C)CC1` [2-(1,3-benzoxazol-2-ylamino)-4-[(4-methyl-1-piperazinyl)methyl]-5-pyrimidinecarboxylic acid ethyl ester] stands over 79.4 µM.
The same measure, in the same setting: with `O=C(COC(=O)C(Cc1ccccc1)NC(=O)c1ccco1)NC1CC1` (stereo not drawn) [2-(2-furoylamino)-3-phenyl-propionic acid [2-(cyclopropylamino)-2-keto-ethyl] ester] the figure was over 79.4 µM; with `O=c1c2ccccc2nc(-c2ccoc2)n1CCc1ccccc1` [2-(3-furanyl)-3-(2-phenylethyl)-4-quinazolinone], over 79.4 µM; with `COc1cccc(C(C#N)N2CCOCC2)c1` (stereo not drawn) [2-(3-methoxyphenyl)-2-(4-morpholinyl)acetonitrile], over 79.4 µM.
Regarding `O=C(CSc1nnc(-c2ccccn2)n1Cc1ccccc1)NC1CCCC1` [2-(4-Benzyl-5-pyridin-2-yl-4H-[1,2,4]triazol-3-ylsulfanyl)-N-cyclopentyl-acetamide], the IC50 was over 79.4 µM.
Consider `Cc1c(NC(=O)COC(=O)C(c2ccc(Cl)cc2)C(C)C)c(=O)n(-c2ccccc2)n1C` (stereo not drawn) [2-(4-chlorophenyl)-3-methyl-butyric acid [2-keto-2-[(3-keto-1,5-dimethyl-2-phenyl-3-pyrazolin-4-yl)amino]ethyl] ester], for which the IC50 was over 79.4 µM.
`CCCc1nnc(NC(=O)CNc2ccc(F)cc2)s1` [2-(4-fluoroanilino)-N-(5-propyl-1,3,4-thiadiazol-2-yl)acetamide] gave an IC50 of over 79.4 µM.
Same read-out and setting: under `Cc1[nH]c2ccccc2c1/C=C1\N=C(c2ccc(F)cc2)OC1=O` [2-(4-fluorophenyl)-4-[(2-methyl-1H-indol-3-yl)methylene]-1,3-oxazol-5(4H)-one] stands over 79.4 µM; under `CCCOC(=O)C(C)n1cnc2sc(C)c(C)c2c1=O` (stereo not drawn) [2-(4-keto-5,6-dimethyl-thieno[2,3-d]pyrimidin-3-yl)propionic acid propyl ester], over 79.4 µM.
Still for that read-out and setting: with `Cc1ccc(-c2nc3cccnc3o2)cc1NC(=O)COc1ccc(C(C)(C)C)cc1` [2-(4-tert-butylphenoxy)-N-(2-methyl-5-[1,3]oxazolo[5,4-b]pyridin-2-ylphenyl)acetamide] the figure was over 79.4 µM; with `CN(C)c1nccc(Nc2ccccc2)c1C#N` [2-(dimethylamino)-4-phenylazanyl-pyridine-3-carbonitrile], over 79.4 µM.
On the same count and under the same terms, with `CN(C)c1nc2n(c(=O)n1)CCO2` [2-(dimethylamino)-6,7-dihydro-[1,3]oxazolo[3,2-a][1,3,5]triazin-4-one] the figure was over 79.4 µM; with `O=C(CN1C(=O)NC2(CCCC2)C1=O)NCCC1=CCCCC1` [2-[2,4-bis(oxidanylidene)-1,3-diazaspiro[4.4]nonan-3-yl]-N-[2-(cyclohexen-1-yl)ethyl]ethanamide], over 79.4 µM.
`O=C(NNC(=O)C1CCCCC1)C(=O)NC1CCCCC1` [2-[2-(cyclohexanecarbonyl)hydrazinyl]-N-cyclohexyl-2-oxoacetamide]: the IC50 was over 79.4 µM.
The same measure, in the same setting: with `Cc1ccc(Nc2cnn(C34CC5CC(CC(CC(=O)O)(C5)C3)C4)c(=O)c2Cl)cc1` [2-[3-[5-chloro-4-(4-methylanilino)-6-oxo-1-pyridazinyl]-1-adamantyl]acetic acid] the figure was over 79.4 µM.

The experiment is the same for the next values; noted with them: inactive by the depositor's call.
As for `CCNc1c2c3c(cccc3n(C)c1=O)C(=O)c1ccccc1-2` [1-(ethylamino)-3-methyl-3H-naphtho[1,2,3-de]quinoline-2,7-dione], the IC50 is 25.7 µM.
In the case of `CCn1c(CSc2nnc3ccccn23)nc2cc(C(=O)O)ccc21` [1-ethyl-2-[([1,2,4]triazolo[4,3-a]pyridin-3-ylthio)methyl]-5-benzimidazolecarboxylic acid], the IC50 stood at 20.4 µM.

(Values after BindingDB's records for doi:10.7270/Q2KP80J0 (The Scripps Research Institute Molecular Screening Center, 2007).)
